The supplement of paper PMC6045584
± gives the standard deviation of the averaged measurements.

Columns and labels:
CANERTINIB = compound: C=CC(=O)Nc1cc2c(Nc3ccc(F)c(Cl)c3)ncnc2cc1OCCCN1CCOCC1 [CANERTINIB]; assay: surviving fraction relative to DMSO-only wells; higher = less growth inhibition; conditions: exposure time: 5 days
In short: (§1)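 At 250–500 cells per well in 384-well plates, log-phase tumour cell lines were seeded and, 24 hours on, exposed continuously for five days to inhibitors at 0.5, 1, 5, 10, 50, 100, 500 and 1000 nM. Viability readout was CellTiter-Glo luminescence, reported as surviving fraction normalised to the median of DMSO-only wells.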

SNX-5422 = compound: CC1(C)CC(=O)c2c(C(F)(F)F)nn(-c3ccc(C(N)=O)c(N[C@H]4CC[C@H](OC(=O)CN)CC4)c3)c2C1 [SNX-5422]; assay: as above; conditions: exposure time: 5 days
In short: as §1

Row | Test System | surviving fraction (CANERTINIB; 0.5 nM) | surviving fraction (CANERTINIB; 1 nM) | surviving fraction (CANERTINIB; 5 nM) | surviving fraction (CANERTINIB; 10 nM) | surviving fraction (CANERTINIB; 50 nM) | surviving fraction (CANERTINIB; 100 nM) | surviving fraction (CANERTINIB; 500 nM) | surviving fraction (CANERTINIB; 1000 nM) | surviving fraction (SNX-5422; 0.5 nM) | surviving fraction (SNX-5422; 1 nM) | surviving fraction (SNX-5422; 5 nM) | surviving fraction (SNX-5422; 10 nM) | surviving fraction (SNX-5422; 50 nM) | surviving fraction (SNX-5422; 100 nM) | surviving fraction (SNX-5422; 500 nM) | surviving fraction (SNX-5422; 1000 nM)
1 | SG31 HEADNECK | 0.935 ± 0.084 | 0.907 ± 0.035 | 0.811 ± 0.043 | 0.688 ± 0.15 | 0.63 ± 0.12 | 0.581 ± 0.086 | 0.588 ± 0.045 | 0.498 ± 0.1 | 1.03 ± 0.12 | 1.09 ± 0.22 | 1.05 ± 0.096 | 0.876 ± 0.14 | 0.61 ± 0.024 | 0.187 ± 0.029 | 0.0373 ± 0.0076 | 0.0403 ± 0.006
2 | DU4475 BREAST | 0.819 ± 0.11 | 0.797 ± 0.088 | 0.782 ± 0.099 | 0.742 ± 0.15 | 0.976 ± 0.12 | 0.919 ± 0.045 | 0.79 ± 0.18 | 0.596 ± 0.13 | 1.07 ± 0.29 | 0.979 ± 0.18 | 1.04 ± 0.17 | 1.06 ± 0.26 | 0.03 ± 0.013 | 0.0313 ± 0.0065 | 0.029 ± 0.0052 | 0.0317 ± 0.0072
3 | HCC202 BREAST | 0.939 ± 0.12 | 0.93 ± 0.18 | 0.867 ± 0.21 | 0.682 ± 0.011 | 0.602 ± 0.19 | 0.494 ± 0.053 | 0.333 ± 0.057 | 0.177 ± 0.051 | 1.37 ± 0.51 | 0.842 ± 0.83 | 0.874 ± 0.71 | 1.11 ± 0.68 | 0.514 ± 0.12 | 0.534 ± 0.12 | 0.218 ± 0.053 | 0.186 ± 0.043
4 | KPD BONE | 0.943 ± 0.043 | 0.947 ± 0.076 | 0.962 ± 0.026 | 0.929 ± 0.023 | 0.917 ± 0.068 | 0.922 ± 0.04 | 0.776 ± 0.048 | 0.497 ± 0.047 | 1 ± 0.015 | 1.03 ± 0.07 | 1.02 ± 0.054 | 0.954 ± 0.026 | 0.265 ± 0.0056 | 0.109 ± 0.004 | 0.0673 ± 0.0015 | 0.0643 ± 0.0067
5 | G292 BONE | 0.914 ± 0.061 | 0.949 ± 0.028 | 0.966 ± 0.055 | 0.957 ± 0.019 | 0.955 ± 0.054 | 0.997 ± 0.073 | 0.876 ± 0.046 | 0.677 ± 0.051 | 1.01 ± 0.014 | 0.952 ± 0.055 | 1.02 ± 0.033 | 0.994 ± 0.034 | 0.366 ± 0.017 | 0.287 ± 0.028 | 0.081 ± 0.0089 | 0.0853 ± 0.012
6 | COLO320DM LARGE INTESTINE | 1.14 ± 0.076 | 1.15 ± 0.042 | 1.04 ± 0.062 | 1.05 ± 0.06 | 1.11 ± 0.084 | 1.04 ± 0.047 | 0.893 ± 0.032 | 0.66 ± 0.018 | 1.11 ± 0.05 | 1.25 ± 0.046 | 1.24 ± 0.27 | 1.13 ± 0.12 | 0.581 ± 0.029 | 0.309 ± 0.035 | 0.113 ± 0.0058 | 0.103 ± 0.009
7 | PCI30 HEADNECK | 0.962 ± 0.047 | 0.879 ± 0.058 | 0.866 ± 0.042 | 0.641 ± 0.032 | 0.485 ± 0.03 | 0.47 ± 0.017 | 0.323 ± 0.034 | 0.228 ± 0.028 | 1.08 ± 0.073 | 1.06 ± 0.086 | 1.13 ± 0.041 | 1.17 ± 0.14 | 0.716 ± 0.05 | 0.316 ± 0.065 | 0.0417 ± 0.0046 | 0.039 ± 0.001
8 | JURKAT HAEMATOPOIETIC AND LYMPHOID TISSUE | 1.01 ± 0.025 | 0.977 ± 0.045 | 1.02 ± 0.018 | 0.952 ± 0.041 | 0.978 ± 0.03 | 0.978 ± 0.014 | 1.01 ± 0.031 | 0.839 ± 0.043 | 1.06 ± 0.014 | 1.05 ± 0.02 | 0.973 ± 0.082 | 0.942 ± 0.026 | 0.094 ± 0.0027 | 0.0437 ± 0.00058 | 0.0387 ± 0.0023 | 0.0443 ± 0.0011
9 | SNU475 LIVER | 0.917 ± 0.0099 | 0.8847 ± 0.0057 | 0.88 ± 0.051 | 0.85 ± 0.041 | 0.9373 ± 0.0055 | 0.908 ± 0.024 | 0.869 ± 0.022 | 0.808 ± 0.058 | 1.024 ± 0.0066 | 1.05 ± 0.045 | 1.06 ± 0.016 | 1.01 ± 0.068 | 0.565 ± 0.033 | 0.358 ± 0.011 | 0.245 ± 0.014 | 0.234 ± 0.012
10 | 22RV1 PROSTATE | 0.981 ± 0.038 | 0.913 ± 0.091 | 0.985 ± 0.033 | 1.08 ± 0.25 | 1.05 ± 0.24 | 1.01 ± 0.11 | 1.12 ± 0.22 | 0.905 ± 0.14 | 1.06 ± 0.047 | 1.11 ± 0.056 | 1.06 ± 0.037 | 0.941 ± 0.056 | 0.169 ± 0.018 | 0.13 ± 0.022 | 0.0763 ± 0.014 | 0.0823 ± 0.0091
11 | OSHN BONE | 0.898 ± 0.036 | 0.904 ± 0.028 | 0.932 ± 0.035 | 0.91 ± 0.019 | 1.03 ± 0.043 | 1.03 ± 0.016 | 1.02 ± 0.0035 | 1.03 ± 0.028 | 1.1 ± 0.024 | 1.11 ± 0.036 | 1.11 ± 0.012 | 1.1 ± 0.018 | 0.842 ± 0.067 | 0.162 ± 0.0064 | 0.138 ± 0.0047 | 0.136 ± 0.0076
